Measured values from paper PMC10590383, “Repurposing conformational changes in ANL superfamily enzymes to rapidly generate biosensors for organic and amino acids” (Nature Communications, 2023).

Experiments:
GECFINDER-Phe3 = molecular target: T1, GECFINDER-Phe3 (Aneurinibacillus migulanus, UniProt P0C061); assay: Fluorescence dose-response of purified cpEGFP sensors (0.75 uM) in 100 mM Tris-HCl pH 7.5, room temperature, 1 mM ATP, 2.5 mM MgCl2; excitation 400, 460 or 480 nm by sensor, emission 510 nm; logistic five-parameter fit.; assay type: biochemical; details: n = 3
T1 construct: gene grsA; GrsA-PheA-PCP; cpEGFP inserted in hinge B, linkers VF-QS
T1 sequence (P0C061 1-617): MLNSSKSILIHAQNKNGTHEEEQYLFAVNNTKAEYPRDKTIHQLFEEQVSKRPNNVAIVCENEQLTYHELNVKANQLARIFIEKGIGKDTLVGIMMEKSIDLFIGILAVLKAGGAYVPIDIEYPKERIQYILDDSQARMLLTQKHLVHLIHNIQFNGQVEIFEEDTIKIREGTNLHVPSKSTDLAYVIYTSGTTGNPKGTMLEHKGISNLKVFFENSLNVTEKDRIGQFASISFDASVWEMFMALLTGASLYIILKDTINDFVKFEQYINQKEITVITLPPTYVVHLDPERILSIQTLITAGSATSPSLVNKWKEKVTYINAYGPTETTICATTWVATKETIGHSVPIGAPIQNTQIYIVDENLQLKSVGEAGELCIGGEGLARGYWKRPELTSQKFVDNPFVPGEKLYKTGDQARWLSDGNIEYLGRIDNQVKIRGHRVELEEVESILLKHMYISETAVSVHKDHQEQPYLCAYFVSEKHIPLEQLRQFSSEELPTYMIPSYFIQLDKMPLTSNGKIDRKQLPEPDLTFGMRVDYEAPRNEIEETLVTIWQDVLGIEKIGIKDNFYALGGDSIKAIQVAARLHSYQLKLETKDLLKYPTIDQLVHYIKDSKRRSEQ
Description: (§1) Fig. 3 Dose–response curves and fluorescence spectrums of […]s. a, c, e, g, i, k Dose–response curve of purified […]s with increasing concentrations of ligand in 100 mM Tris-HCl buffer (pH=7.5). The normalized ΔF/F0 value increased after ligand binding. All data shown are mean ± S.D. (n = 3 biologically independent samples). b, d, f, h, j, l The fluorescence spectra of […]s changed as the ligand concentration increased. All data shown are mean ± S.D. (n = 3 biologically independent samples). Source data are provided as a Source data file.
(§2) The study conducted dose–response curve, substrate specificity, and fluorescent spectrum analyses in 100-mM Tris buffer (pH = 7.5), while pH stability experiments were performed in 100-mM Tris buffer at three different pH values (6.5, 7.5, and 8.5) at room temperature. […] protein at a concentration of 0.75 μM, various small molecule concentrations, 1 mM ATP, and 2.5 mM MgCl2 were used in the experiments. Fluorescent signals were detected using a Microplate Reader (Synergy H4, Bio Tek) at an excitation/emission wavelength of 460 nm/510 nm or 480 nm/510 nm. The dose-response curve was determined immediately after the addition of the analyte. The total duration of the measurement was 15 min, with readings taken at one-minute intervals. The dose-response curve was plotted using the fluorescence values obtained after achieving stability in the fluorescence signal. The dose-response curves were fitted using the logistic model LOGISTIC5 available in Origin 2021, which could provide a more adequate fit to asymmetric dose-response data[62],[63]. Excitation spectra were scanned from 300 to 540 nm with a step size of 5 nm, and the emission wavelength was set to 560 nm. Emission spectra were scanned from 470 to 700 nm with a step size of 5 nm, and the excitation wavelength was set to 450 nm. The thermal stability of […] was analyzed using the UNcle multifunctional protein stability analysis system. Measurements were performed in 20 mM MOPS buffer with 2 mM DTT at a sample concentration of 1 mg/mL. Absolute fluorescence quantum yields were measured using an absolute photoluminescence quantum yield spectrometer (FS5, Edinburgh).

GECFINDER-SβF = assay: Fluorescence dose-response of purified binding-pocket-engineered sensors (0.75 uM) in 100 mM Tris-HCl pH 7.5, room temperature, 1 mM ATP, 2.5 mM MgCl2, excitation 460 or 480 nm, emission 510 nm; logistic five-parameter fit.; assay type: biochemical; details: n = 3
Description: (§3) Fig. 4 Engineering ligand specificity of GrsA-PheA for generating […]s. a The selectivity-conferring code of Phe and Leu A domains. b–f Dose–response curve of purified […]s with increasing concentrations of ligands in 100 mM Tris-HCl buffer (pH=7.5). All data shown are means ± S.D. (n = 3 biologically independent samples). g A series of […] reactions was tested to show the […]’s specificity with 20 proteinogenic amino acids. The values on the heatmap represent the ΔF/F0 value normalized to each […]’s maximal ΔF/F0 value ((ΔF/F0)/maximal ΔF/F0). The concentrations of 20 amino acids were 100 μM. The color indicates the average value of three independent biological replicates after 15 min. All data shown are means ± S.D. (n = 3 biologically independent samples). Source data are provided as a Source data file.
as §2

[1] = Fluorescence spectra / excitation wavelength scan of […]s; assay type: physicochemical; details: Wavelength 300 nm
Description: Fig. 3 Dose–response curves and fluorescence spectrums of […]s. a, c, e, g, i, k Dose–response curve of purified […]s with increasing concentrations of ligand in 100 mM Tris-HCl buffer (pH=7.5). […] All data shown are mean ± S.D. (n = 3 biologically independent samples). Source data are provided as a Source data file.
as §2

[2] = Dose–response curve of purified […] with glutamic acid; assay type: biochemical; parameters: key: normalized ΔF/F0 (fluorescence change relative to baseline F0)
Description: as §1, §2

[3] = Substrate (ligand) specificity of […]s; assay type: biochemical; details: Supplementary Fig. 3 c; substrate specificity
Description: as §3
Ligand specificity is an important biosensors feature. Generally, the NRPS A domains have high specificity for their substrates because they are the first “gatekeeper” of NRPSs and ensure that the correct monomers are activated and thioesterified[32],[33]. Therefore, we speculated that this property would be inherited by our […]s because the ligand-binding pockets were unchanged during the […] creation process. Twenty proteinogenic amino acids were used to test the ligand specificity of […]s. […] We also investigated the dependence of […]s on Mg^2+ and ATP (Supplementary Fig. 4). […] This phenomenon corroborates with the distinct conformational changes observed in Hinge A of Nt4CL2 (Mg^2++ATP) (PDB ID: 5BSM) and Nt4CL2 (Coumaroyl-AMP) (PDB ID: 5BST) reported in the literature (Supplementary Fig. 4k), where the direction of motion in hinge A differs. […] During the determination of quantum yield, we observed that the absolute quantum yield of the […] variants ranged from 0.3 to 0.6 upon addition of the respective substrates, which show no significant difference with that reported in literature. The specific values are provided in Supplementary Table 2.
as §2

GECFINDER-Glu = molecular target: T2, GECFINDER-Glu (Bacillus subtilis, UniProt P39845); assay: Fluorescence dose-response of purified cpEGFP sensors (0.75 uM) in 100 mM Tris-HCl pH 7.5, room temperature, 1 mM ATP, 2.5 mM MgCl2; excitation 400, 460 or 480 nm by sensor, emission 510 nm; logistic five-parameter fit.; assay type: biochemical; details: n = 3
T2 construct: gene ppsA; PpsA-GluA-PCP; cpEGFP inserted, linkers HS-WL
T2 sequence (P39845 434-1036): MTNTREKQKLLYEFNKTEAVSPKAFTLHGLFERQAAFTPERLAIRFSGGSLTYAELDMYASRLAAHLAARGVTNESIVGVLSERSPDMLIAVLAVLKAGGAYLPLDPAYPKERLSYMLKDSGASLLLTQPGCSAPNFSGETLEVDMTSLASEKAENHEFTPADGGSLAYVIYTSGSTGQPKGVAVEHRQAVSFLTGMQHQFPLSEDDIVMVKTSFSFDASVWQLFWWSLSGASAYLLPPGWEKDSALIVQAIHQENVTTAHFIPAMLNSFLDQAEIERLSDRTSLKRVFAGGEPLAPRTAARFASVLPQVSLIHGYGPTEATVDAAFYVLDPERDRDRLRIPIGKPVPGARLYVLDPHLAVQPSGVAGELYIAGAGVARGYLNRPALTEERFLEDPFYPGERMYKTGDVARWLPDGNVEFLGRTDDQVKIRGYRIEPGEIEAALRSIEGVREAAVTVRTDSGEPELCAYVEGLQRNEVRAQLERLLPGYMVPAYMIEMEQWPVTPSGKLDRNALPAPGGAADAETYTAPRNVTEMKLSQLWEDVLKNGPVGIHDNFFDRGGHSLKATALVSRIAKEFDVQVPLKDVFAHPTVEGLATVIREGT
Description: as §1, §2

[4] = Dose–response curve of purified […] with R-β-phenylalanine; assay type: biochemical
Description: as §3, §2

For `N[C@@H](CC(=O)O)c1ccccc1` [S-β-Phe, S-β-phenylalanine], the EC50 (GECFINDER-Phe3) was 13.6 ± 1.28 µM and the EC50 (GECFINDER-SβF) was 7.4 ± 0.45 µM.
With `N[C@@H](CCC(=O)O)C(=O)O` [Glu] the “Wavelength scan, AVE of Repeat 1-3 (Fig. 3 f)” value (“Wavelength scan, AVE” for short) ([1]; 0.1 μM Glu) was 86.3333, the “Wavelength scan, AVE” value ([1]; 5 μM Glu) was 106 and the “Wavelength scan, AVE” value ([1]; 500 μM Glu) was 120.667. For the same compound, the “Dose-response, AVE of Repeat 1-3 (Fig. 3 e)” value (shortened to “Dose-response, AVE”) ([2]; Glu 0.1 μM) was 0, the “Dose-response, AVE” value ([2]; Glu 1 μM) was 0.02632 and the “Dose-response, AVE” value ([2]; Glu 2 μM) was 0.0378. For the same compound, the “Dose-response, AVE” value ([2]; Glu 5 μM) was 0.1147, the “Dose-response, AVE” value ([2]; Glu 10 μM) was 0.1961 and the “Dose-response, AVE” value ([2]; Glu 20 μM) was 0.322. The “Dose-response, AVE” value ([2]; Glu 50 μM) was 0.5379, the “Dose-response, AVE” value ([2]; Glu 100 μM) was 0.6984 and the “Dose-response, AVE” value ([2]; Glu 200 μM) was 0.8758. For the same compound, the “Dose-response, AVE” value ([2]; Glu 500 μM) was 1.002, the “Dose-response, AVE” value ([2]; Glu 750 μM) was 0.9874 and the “Dose-response, AVE” value ([2]; Glu 1000 μM) was 0.9487. The “fluorescence response of GECFINDER to each substrate, AVE of 3 repeats” value [3] was -0.007518.
`N[C@@H](CCC(=O)O)C(=O)O` [Glu, glutamic acid] showed an EC50 (GECFINDER-Glu) of 42.9 ± 3.93 µM.
For `N[C@H](CC(=O)O)c1ccccc1` [R-β-Phe], the “AVE, dose-response Fig. 4 f” value ([4]; substrate R-β-Phe 0.0001 μM) was -0.0001175, the “AVE, dose-response Fig. 4 f” value ([4]; substrate R-β-Phe 0.001 μM) was -0.003533 and the “AVE, dose-response Fig. 4 f” value ([4]; substrate R-β-Phe 0.01 μM) was -3.814e-5. The “AVE, dose-response Fig. 4 f” value ([4]; substrate R-β-Phe 0.1 μM) was 0.008066, the “AVE, dose-response Fig. 4 f” value ([4]; substrate R-β-Phe 1 μM) was 0.06811 and the “AVE, dose-response Fig. 4 f” value ([4]; substrate R-β-Phe 5 μM) was 0.06226. For the same compound, the “AVE, dose-response Fig. 4 f” value ([4]; substrate R-β-Phe 10 μM) was 0.1204, the “AVE, dose-response Fig. 4 f” value ([4]; substrate R-β-Phe 50 μM) was 0.3026 and the “AVE, dose-response Fig. 4 f” value ([4]; substrate R-β-Phe 100 μM) was 0.3923. For the same compound, the “AVE, dose-response Fig. 4 f” value ([4]; substrate R-β-Phe 500 μM) was 0.5534, the “AVE, dose-response Fig. 4 f” value ([4]; substrate R-β-Phe 1000 μM) was 0.5949 and the “AVE, dose-response Fig. 4 f” value ([4]; substrate R-β-Phe 2000 μM) was 0.5892. For the same compound, the “fluorescence response of GECFINDER to each substrate, AVE of 3 repeats” value [3] was 0.4936.
